Assay results from patent publication US10203334B2, “Methods and compositions related to nucleic acid binding assays” (Nubad, LLC, priority 2012, dated 2019).

How the values were obtained:
bacterial A-site oligos = details: cited from earlier work
TAR RNA = details: read-out: IC50 for inhibition of Tat peptide binding to the TAR RNA; cited from earlier work
[1] = test system: dimeric form of a parallel quadruplex formed by the Tetrahymena telomere; details: cited from earlier work
[2] = test system: E. coli ribosomal A-site oligonucleotide (SEQ ID No. 1); assay: 96-well F-neo displacement HTS on ribosomal A-site; type: binding; details: 0.30 mM F-neo, 0.3 mM A-site oligonucleotide, 1.0 mM neomycin
From the text: [drawing 24] where FHNeo represents the protonated form of F-neo. F(-)Neo, upon binding to nucleic acids such as DNA or RNA, is destabilized by the nucleic acid backbone negative potential, shifting the equilibrium towards FH, making F-neo a weaker acid, raising the pKa, which is what we observe upon binding to the A-site. For the A-site targeted assay, we calculated the Z' factor (Z=1-3(2.7+2.8)/(414-267)=0.89. […] Provided is a detailed example for the development of a HTS by the displacement of a fluorescene-neomycin (F-neo (42a)) from rRNA A-site oligonucleotide (SEQ ID No. 1) using a 96 well plate format and a fluorescent plate reader. […] This HTS involves the displacement of a fluorescene-neomycin (F-neo (42a)) by potential RNA binding molecules in a 96 well plate format using a fluorescent plate reader. […] F-neo based RNA binding assays have been performed using a fluorescence spectrophotometer with a 96-well plate reader and results recorded in FIG. 4. […] Fo is defined as the baseline fluorescence intensity of the RNA/F-neo complex and F is the intensity with added drug. The difference between the fluorescence intensity baseline of F-neo/A-site complex and complex with added drug (F-Fo) indicates the extent of the competition of drug for the binding site, this allows the relative binding affinities of aminoglycosides to be established. […]

DNA d(G4C4) [3] = assay: Displacement of TO-neo (36a) from GC DNA, 96-well; type: binding; details: FIG. 14
From the text: The HTS by the displacement of a thiazole-neomycin (TO-neo (36a)) bound from a synthetic DNA sequence eight bases long designed to conform to A-form DNA by the synthetic molecule neomycin-anthraquinone 67 using a 96 well plate format and a fluorescent plate reader was disclosed herein.
The high throughput screening (HTS) has been designed to determine the binding of drugs to the target sequence d(G4C4). The target is predicted to exist predominately in the A-form conformation of DNA. This HTS involves the displacement of a TO-neo (36a) molecule by DNA binding molecules in a 96 well plate format using a fluorescent plate reader. […] The quality of the assay was determined by the calculation of a Z′-factor using equation 1 for the displacement of TO-neo (36a) from the DNA by a neomycin-anthraquinone 67 conjugate. […]
The fluorescence of the probe decrease approximately 60% with the addition of the neomycin-anthraquinone 67, a synthetic molecule predicted to bind in the major groove. However, with the addition of the minor groove binding compound 59, the change in fluorescence is less than 10%. The change in the fluorescence observed upon the addition of the compound 59 is approximately the same as that observed in the DMSO control.

DNA d(G4C4) [4] = assay: Displacement of F-neo (42a) from GC DNA, 96-well; type: binding; details: one molar equivalent; FIG. 15
From the text: The HTS by the displacement of a fluorescene-neomycin (F-neo (42a)) bound from a synthetic DNA sequence eight bases long designed to conform to A-form DNA by the synthetic molecule neomycin-anthraquinone (67) using a 96 well plate format and a fluorescent plate reader is disclosed.
The high throughput screening (HTS) has been designed to determine the binding of drugs to the target sequence d(G4C4). The target is predicted to exist predominately in the A-form conformation of DNA. This HTS involves the displacement of a fluorescene-neomycin (F-neo (42a)) by DNA binding molecules in a 96 well plate format using a fluorescent plate reader. […] The quality of the assay was determined by the calculation of a Z′-factor using equation 1 for the displacement of F-neo (42a) from the DNA by neomycin-anthraquinone 67. The final assay results were obtained using the average (μn) and standard deviation (σn) from 36 wells of 0.1 μM F-neo (42a)/DNA d(G4C4) as the negative control and from the average (μp) and standard deviation (σp) 36 wells of 0.1 μM F-neo (42a)/DNA d(G4C4) mixed with 0.3 μM neomycin-anthraquinone 67 as the positive control.
Upon binding to the DNA the fluorescence of F-neo (42a) is quenched. […] This increase is not observed with the addition of the minor groove binding compound 59, in which the change in the fluorescence observed is approximately the same as that of the DMSO control.

Compound	relative binding affinities with bacterial A-site oligos (bacterial A-site oligos)	IC50 (TAR RNA) [µM]	also measured
NC[C@@H]1O[C@H](O[C@H]2[C@@H](O)[C@H](O[C@@H]3[C@@H](O)[C@H](N)C[C@H](N)[C@H]3O[C@H]3O[C@H](CO)[C@@H](O)[C@H](O)[C@H]3N)O[C@@H]2CO)[C@H](N)[C@@H](O)[C@@H]1O [paromomycin]	neomycin>paromomycin>ribostamycin		
NC[C@H]1O[C@H](O[C@H]2[C@H](O[C@@H]3O[C@H](CO)[C@@H](O)[C@H]3O)[C@@H](O)[C@H](N)C[C@@H]2N)[C@H](N)[C@@H](O)[C@@H]1O [ribostamycin]	neomycin>paromomycin>ribostamycin		
[H]/N=C(/N)N[C@H]1[C@H](O)[C@@H](O)[C@H](O[C@@H]2O[C@@H](C)[C@](O)(C=O)[C@H]2O[C@@H]2O[C@@H](CO)[C@H](O)[C@@H](O)[C@@H]2NC)[C@@H](N/C(N)=N\[H])[C@@H]1O [streptomycin]		9.5 ± 0.8	
neomycin	neomycin>paromomycin>ribostamycin	0.92 ± 0.09	affinity [1]: nanomolar affinity; effect of added drug on fluorescence of F-neo/A-site oligonucleotide complex [2]: restored the intensity to F-neo only levels
gentamicin		45 ± 4	
CN(C)CCCNC(=O)c1cc(NC(=O)c2cc(NC(=O)c3nc(NC(=O)c4nc(NC(=O)CCCNC(=O)c5cc(NC(=O)c6cc(NC(=O)c7nc(NC(=O)c8nccn8C)cn7C)cn6C)cn5C)cn4C)cn3C)cn2C)cn1C [compound 59, reference compound]			decrease in fluorescence of TO-neo (36a) bound to d(G4C4)2 on addition of compound (DNA d(G4C4) [3]): less than 10%; change in fluorescence of F-neo (42a) bound to d(G4C4)2 on addition of compound (DNA d(G4C4) [4]): not displaced
NCC1O[C@H](OC2C(O)C(OC3C(O)[C@H](N)CC(N)[C@H]3O[C@H]3OC(CN)[C@@H](O)C(O)C3N)O[C@@H]2CSCCNC(=S)NCCNC(=O)c2ccc3c(c2)C(=O)c2ccccc2C3=O)C(N)C(O)[C@@H]1O (stereo partly drawn) [neomycin-anthraquinone 67, Neomycin-Anthraquinone Conjugate]			decrease in fluorescence of TO-neo (36a) bound to d(G4C4)2 on addition of compound (DNA d(G4C4) [3]): approximately 60%; change in fluorescence of F-neo (42a) bound to d(G4C4)2 on addition of compound (DNA d(G4C4) [4]): significant increase in the fluorescence
